Source: US20210024545A1, “SUBSTITUTED DIAZAHETERO-BICYCLIC COMPOUNDS AND THEIR USE” (Bayer Aktiengesellschaft, priority 2016, published 2021)

Assays:
Assay type in all cases: cell-based
human TASK-1 [1] = target: T1, human TASK-1 (Homo sapiens, UniProt O14649); assay: Inhibition of recombinant TASK-1 in stably transfected CHO cells, KCl-induced depolarization, voltage-sensitive dye (B-2); set-up: expressed in transfected cells; host or cells: stably transfected CHO cells; conditions: depolarization induced by 40 mM potassium chloride, some mean values from multiple determinations
T1 sequence (O14649 whole entry): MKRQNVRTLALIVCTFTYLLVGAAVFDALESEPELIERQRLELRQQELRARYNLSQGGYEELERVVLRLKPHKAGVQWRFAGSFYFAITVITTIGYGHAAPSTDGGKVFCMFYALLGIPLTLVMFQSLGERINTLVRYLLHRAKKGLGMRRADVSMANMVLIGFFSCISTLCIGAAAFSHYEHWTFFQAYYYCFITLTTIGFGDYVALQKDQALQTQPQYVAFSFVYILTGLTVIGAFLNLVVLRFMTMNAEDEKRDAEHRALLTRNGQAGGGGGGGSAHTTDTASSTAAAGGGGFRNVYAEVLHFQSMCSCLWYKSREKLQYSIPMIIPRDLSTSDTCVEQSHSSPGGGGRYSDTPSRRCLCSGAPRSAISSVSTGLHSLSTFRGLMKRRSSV
In short: (§1)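 Stably transfected CHO cells loaded with a voltage-sensitive membrane potential dye. Depolarization was induced with 40 mM KCl, and compound inhibition of it was read by fluorescence. IC50 is the concentration blocking half of the KCl-induced depolarization; some values are means of multiple independent determinations.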

human TASK-3 [2] = target: T2, human TASK-3 (Homo sapiens, UniProt Q9NPC2); assay: Two-electrode voltage clamp analysis of human TASK-3 channel in Xenopus laevis oocytes (B-1); set-up: expressed in transfected cells; host or cells: Xenopus laevis oocytes injected with cRNA; conditions: Xenopus laevis oocytes injected with TASK-3 cRNA, 21-22° C.
T2 sequence (Q9NPC2 whole entry): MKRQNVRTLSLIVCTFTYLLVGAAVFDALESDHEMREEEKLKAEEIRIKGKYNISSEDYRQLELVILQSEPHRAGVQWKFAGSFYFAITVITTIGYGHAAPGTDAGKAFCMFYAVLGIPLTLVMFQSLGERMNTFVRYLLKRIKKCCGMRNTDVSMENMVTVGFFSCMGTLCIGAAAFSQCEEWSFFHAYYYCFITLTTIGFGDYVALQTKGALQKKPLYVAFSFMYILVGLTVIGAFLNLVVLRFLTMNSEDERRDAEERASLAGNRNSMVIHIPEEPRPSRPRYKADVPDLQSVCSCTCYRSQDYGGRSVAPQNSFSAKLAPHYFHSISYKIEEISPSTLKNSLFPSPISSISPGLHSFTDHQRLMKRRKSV
Method: (§2) B-1. In Vitro Electrophysiological Analysis of the Human TASK-1 and TASK-3 Channels via Two-Electrode Voltage Clamp Technique in Xenopus laevis Oocytes
(§3) Xenopus laevis oocytes were selected as described elsewhere by way of illustration [Decher et al., FEBS Lett. 492, 84-89 (2001)]. Subsequently, the oocytes were injected with 0.5-5 ng of a cRNA solution coding for TASK-1 or TASK-3. For the electrophysiological analysis of the channel proteins expressed in the oocytes, the two-electrode voltage clamp technique [Stühmer, Methods Enzymol. 207, 319-339 (1992)] was used. The measurements were conducted as described [Decher et al., FEBS Lett. 492, 84-89 (2001)] at room temperature (21-22° C.) using a Turbo TEC 10CD amplifier (NPI), recorded at 2 kHz and filtered with 0.4 kHz. Substance administration was performed using a gravitation-driven perfusion system. Here, the oocyte is located in a measuring chamber and exposed to the solution stream of 10 ml/min The level in the measuring chamber is monitored and regulated by sucking off the solution using a peristaltic pump.

human TASK-3 [3] = target: T2, human TASK-3; assay: Inhibition of recombinant TASK-3 in stably transfected CHO cells, KCl-induced depolarization, voltage-sensitive dye (B-2); set-up: expressed in transfected cells; host or cells: stably transfected CHO cells; conditions: depolarization induced by 40 mM potassium chloride, some mean values from multiple determinations
In short: as §1

human TASK-1 [4] = target: T1, human TASK-1; assay: Two-electrode voltage clamp analysis of human TASK-1 channel in Xenopus laevis oocytes (B-1); set-up: expressed in transfected cells; host or cells: Xenopus laevis oocytes injected with cRNA; conditions: Xenopus laevis oocytes injected with TASK-1 cRNA, 21-22° C.
Method: as §2, §3

Compound | IC50 (human TASK-1 [1]) | IC50 (human TASK-3 [2]) | IC50 (human TASK-3 [3]) | IC50 (human TASK-1 [4])
COc1cccc(C(=O)N2CC3CCC(C2)N3Cc2c(-c3ccc(Cl)cc3)nc3ccccn23)n1 [Example 92] | 0.895 µM | 0.0059 ± 0.0018 µM | 0.029 µM | 0.0135 ± 0.0012 µM
O=C(c1ccccc1F)N1C2CCC1CN(Cc1c(-c3ccc(Cl)cc3)nc3ccccn13)C2 [Example 102] | 0.277 µM | 0.0043 ± 0.0035 µM | 0.056 µM | 0.0087 ± 0.0036 µM
O=C(C1CCCO1)N1C2CC1CN(Cc1c(-c3ccc(Cl)cc3)nc3ccccn13)C2 (racemic) [Example 115] | 4.24 µM | 0.186 ± 0.0054 µM | 2.4 µM | 0.0228 ± 0.0037 µM
COc1ccc(F)c(C(=O)N2CC3CCC2CN3Cc2c(-c3ccc(Cl)cn3)nc3ccccn23)n1 (single isomer, unassigned; enantiomer 1) [Example 24, (5-{[2-(5-Chloropyridin-2-yl)imidazo[1,2-a]pyridin-3-yl]methyl}-2,5-diazabicyclo[2.2.2]oct-2-yl)(3-fluoro-6-methoxypyridin-2-yl)methanone (enantiomer 1)] | 0.14 µM | 0.0312 ± 0.0058 µM | 0.0045 µM | 
COc1cccc(C(=O)N2C3CCC2CN(Cc2c(-c4ccc(Cl)cc4)nc4ccccn24)C3)n1 [Example 104] | 0.255 µM | 0.0042 ± 0.001 µM | 0.032 µM | 0.0607 ± 0.012 µM
COc1ccc(F)c(C(=O)N2CC3CCC2CN3Cc2c(-c3ccc(C(C)C)nc3)nc3ccccn23)n1 (single isomer, unassigned) [Example 126, (3-Fluoro-6-methoxypyridin-2-yl)(5-{[2-(6-isopropylpyridin-3-yl)imidazo[1,2-a]pyridin-3-yl]methyl}-2,5-diazabicyclo[2.2.2]oct-2-yl)methanone] | 17.9 µM | 0.7142 ± 0.0009 µM | 0.713 µM | 0.127 ± 0.0085 µM
O=C(C1CCCC1)N1CC2CCC(C1)N2Cc1c(-c2ccc(Cl)cc2)nc2ccccn12 [Example 86] | 0.331 µM | 0.0584 ± 0.0121 µM | 0.126 µM | 0.0171 ± 0.0035 µM
CCCCCNC(=O)N1C2CCC1CN(Cc1c(-c3ccc(Cl)cc3)nc3ccccn13)C2 [Example 158, 3-{[2-(4-Chlorophenyl)imidazo[1,2-a]pyridin-3-yl]methyl}-N-pentyl-3,8-diazabicyclo[3.2.1]octane-8-carboxamide] | 0.76 µM |  | 0.11 µM | 
COc1cccc(C(=O)N2C3CCC2CN(Cc2c(-c4ccc(Cl)cc4)nc4ccccn24)C3)c1 [Example 108] | 1.1 µM |  | 0.095 µM | 
COc1ccc(C)c(C(=O)N2C3COCC2CN(Cc2c(-c4ccc(Cl)cc4)nc4ccccn24)C3)n1 [Example 81] | 0.52 µM |  | 0.025 µM | 
COc1ccc(C)c(C(=O)N2CC3CCC2CN3Cc2c(-c3ccc(Cl)cc3)nc3ccccn23)n1 (single isomer, unassigned) [Example 138] | 0.075 µM |  | 0.0068 µM | 
COc1ccc(Cl)c(C(=O)N2C3COCC2CN(Cc2c(-c4ccc(Cl)cc4)nc4ccccn24)C3)c1 [Example 74] | 0.33 µM |  | 0.023 µM | 
COc1ccc(F)cc1C(=O)N1C2CCC1CN(Cc1c(-c3ccc(Cl)cc3)nc3ccccn13)C2 [Example 103] | 0.54 µM |  | 0.02 µM | 
O=C(N1CCOCC1)N1C2CCC1CN(Cc1c(-c3ccc(Cl)cc3)nc3ccccn13)C2 [Example 173, (3-{[2-(4-Chlorophenyl)imidazo[1,2-a]pyridin-3-yl]methyl}-3,8-diazabicyclo[3.2.1]oct-8-yl)(morpholin-4-yl)methanone] | 1.7 µM |  | 0.032 µM | 
O=C(C1CCCC1)N1C2CCC1CN(Cc1c(-c3ccc(Br)cc3)nc3ccccn13)C2 [Example 96] | 0.24 µM |  | 0.0045 µM | 
O=C(c1cccc(Cl)c1)N1C2CC1CN(Cc1c(-c3ccc(Cl)cc3)nc3ccccn13)C2 [Example 114] | 0.48 µM |  | 0.34 µM | 

Compound | IC50 (human TASK-1 [1]) | IC50 (human TASK-3 [2]) | IC50 (human TASK-3 [3]) | IC50 (human TASK-1 [4])
O=C(c1ccccc1F)N1CC2CCC(C1)N2Cc1c(-c2ccc(Cl)cc2)nc2ccccn12 [Example 87] | 0.583 µM |  | 0.16 µM | 
O=C(c1cccc(OC(F)(F)F)n1)N1C2COCC1CN(Cc1c(-c3ccc(Cl)cc3)nc3ccccn13)C2 [Example 80] | 0.31 µM |  | 0.015 µM | 
Cc1cccc(C)c1NC(=O)N1C2CCC1CN(Cc1c(-c3ccc(Cl)cc3)nc3ccccn13)C2 [Example 157, 3-{[2-(4-Chlorophenyl)imidazo[1,2-a]pyridin-3-yl]methyl}-N-(2,6-dimethylphenyl)-3,8-diazabicyclo[3.2.1]octane-8-carboxamide] | 0.024 µM |  | 0.0074 µM | 
CC(C)c1csc(C(=O)N2C3CCC2CN(Cc2c(-c4ccc(Cl)cc4)nc4ccccn24)C3)n1 [Example 146, (3-{[2-(4-Chlorophenyl)imidazo[1,2-a]pyridin-3-yl]methyl}-3,8-diazabicyclo[3.2.1]oct-8-yl)(4-isopropyl-1,3-thiazol-2-yl)methanone] | 0.92 µM |  | 0.34 µM | 
CC(C)(C)OC(=O)N1CC2CCC(C1)N2Cc1c(-c2ccc(Br)cc2)nc2ccccn12 [Example 5] | 0.2 µM |  | 0.15 µM | 
CC(C)N(C(=O)N1C2COCC1CN(Cc1c(-c3ccc(Cl)cc3)nc3ccccn13)C2)C(C)C [Example 190, 7-{[2-(4-Chlorophenyl)imidazo[1,2-a]pyridin-3-yl]methyl}-N,N-diisopropyl-3-oxa-7,9-diazabicyclo[3.3.1]nonane-9-carboxamide] | 0.17 µM |  | 0.019 µM | 
CCOC(=O)N1C2COCC1CN(Cc1c(-c3ccc(Cl)cc3)nc3ccccn13)C2 [Example 195, Ethyl 7-{[2-(4-chlorophenyl)imidazo[1,2-a]pyridin-3-yl]methyl}-3-oxa-7,9-diazabicyclo[3.3.1]nonane-9-carboxylate] | 0.23 µM |  | 0.0081 µM | 
O=C(Nc1ccc(Cl)cc1)N1C2CCC1CN(Cc1c(-c3ccc(Cl)cc3)nc3ccccn13)C2 [Example 161, N-(4-Chlorophenyl)-3-{[2-(4-chlorophenyl)imidazo[1,2-a]pyridin-3-yl]methyl}-3,8-diazabicyclo[3.2.1]octane-8-carboxamide] | 7.7 µM |  | 1 µM | 
O=C(c1cccc(OC(F)(F)F)c1)N1CC2CCC1CN2Cc1c(-c2ccc(Cl)cc2)nc2ccccn12 (single isomer, unassigned) [Example 48] | 0.39 µM |  | 0.017 µM | 
COc1cccc(C(=O)N2C3CCC2CN(Cc2c(-c4ccc(Cl)cn4)nc4ccccn24)C3)c1 [Example 112] | 0.2 µM |  | 0.029 µM | 
O=C(c1cccc(OC2CCC2)n1)N1C2COCC1CN(Cc1c(-c3ccc(Cl)cc3)nc3ccccn13)C2 [Example 31, (7-{[2-(4-Chlorophenyl)imidazo[1,2-a]pyridin-3-yl]methyl}-3-oxa-7,9-diazabicyclo[3.3.1]non-9-yl)[6-(cyclobutyloxy)pyridin-2-yl]methanone] | 0.31 µM |  | 0.026 µM | 
COc1ccc(C)c(C(=O)N2C3CCC2CN(Cc2c(-c4ccc(C(C)C)cc4)nc4ccccn24)C3)n1 [Example 145, (3-{[2-(4-Isopropylphenyl)imidazo[1,2-a]pyridin-3-yl]methyl}-3,8-diazabicyclo[3.2.1]oct-8-yl)(6-methoxy-3-methylpyridin-2-yl)methanone] | 0.28 µM |  | 0.027 µM | 
O=C(C1CCC1)N1C2CC1CN(Cc1c(-c3ccc(Cl)cc3)nc3ccccn13)C2 [Example 121] | 1.7 µM |  | 2.8 µM | 
COc1cccc(C(=O)N2C[C@H]3CC[C@@H]2CN3Cc2c(-c3ccc(Cl)cc3)nc3ccccn23)n1 [Example 34] | 0.855 µM | 0.0103 ± 0.0009 µM | 0.084 µM | 0.0186 ± 0.0043 µM
COc1ccc(F)c(C(=O)N2CC3CCC2CN3Cc2c(-c3ccc(Br)cc3)nc3ccccn23)n1 (racemic) [Example 153, (5-{[2-(4-Bromophenyl)imidazo[1,2-a]pyridin-3-yl]methyl}-2,5-diazabicyclo[2.2.2]oct-2-yl)(3-fluoro-6-methoxypyridin-2-yl)methanone] | 1 µM |  | 0.034 µM | 
